Consider 87 compounds from a melting point compilation (Tetko et al.; mined from patent text by program, amines drawn as free bases though some values may be those of a salt).

By melting point is commonly meant the temperature, or range, at which the solid turns liquid. `O=S(=O)(Nc1cc(F)c(Cl)cc1I)c1ccccc1` gave a melting point of 122 to 124 °C.

For `COc1cc(OC)c(/C=C/S(=O)(=O)Cc2ccc(OC)c(NC(C)C(=O)O)c2)c(OC)c1` (configuration not stated), the melting point was 176 to 180 °C.

Turning to `O=C(NCC(=O)N1[C@@H](c2ccccc2)CC[C@H]1c1ccccc1)Nc1cccc(C(=O)O)c1`, the melting point came out at 255 °C.

`Cn1c(-c2ccc(OCC(=O)O)cc2)nc2c3ccccc3ccc21` returned a melting point of 227 °C.

Compound `O=c1[nH]c(CCN2CCCC(O)C2)cc2ccccc12` (configuration not stated) showed a melting point of 192 to 193 °C.

In turn, `COc1ccc(Cc2cc(SC#N)ccc2OC)cn1` registered a melting point of 56 to 58 °C.

As to `CN(C)c1cc2c(cc1Cl)NC(=O)CC(c1cccc(-c3csc(Nc4ccncc4)n3)c1)=N2`, the melting point lay within 231 to 234 °C.

Compound `CCn1c(=O)c2c(nc(/C=C/c3cccc(OC(=O)c4ccccc4)c3)n2C)n(CC)c1=O` had a melting point of 223 to 224 °C.

In the case of `ClCc1c(Cl)c(Cl)c(Cl)c(CCl)c1Cl`, the melting point was in the range of 135 to 138 °C.

In the case of `NS(=O)(=O)c1cccc(NC(=O)c2cnn3c(C(F)F)cc(-c4ccc(OC(F)(F)F)cc4)nc23)c1`, the melting point was determined as 231 °C.

`OCCCOc1c(Cl)cc(OCC=C(Cl)Cl)cc1Cl` registered a melting point of 56.6 °C.

Consider `COc1ccccc1NC(=O)Nc1nc(Nc2ccc(CC(=O)O)cc2)nc(Nc2ccccc2-c2ccccc2)n1`, for which the melting point was greater than 300 °C.

On to `CCc1c(C)nc2cccc(C)n2c1=O`, for which the melting point lay in the range of 127 to 128 °C.

Compound `CCCC1CC(=O)C(C(=O)NS(=O)(=O)c2ccc(C)cc2)C(=O)C1` (configuration not stated) returned a melting point of 132 to 134 °C.

Take `CCCCC(C(=O)Nc1c(C(C)C)cccc1C(C)C)C1c2ccccc2Oc2ccccc21` (configuration not stated): the melting point lay in the range of 188 to 189 °C.

As to `CS(=O)(=O)CC(=O)NCCn1ccc2ncnc(Nc3ccc(Oc4cccc(Cl)c4)c(Cl)c3)c21`, the melting point lay in the range of 206 to 207 °C.

Compound `Cc1[nH]c(=O)c(C#N)cc1-c1ccc(CC(=O)O)cc1` registered a melting point of 280 to 282 °C.

For the compound `COc1ccc(S(=O)(=O)Nc2ccccc2NC(=O)c2ccncc2)cc1`, the melting point fell in the range of 162 to 163 °C.

With `COc1ccc(CCn2cnc3oc(C)c(C)c3c2=N)cc1`, the melting point was 125 °C.

As to `O=C1Nc2ccc([N+](=O)[O-])cc2C(=O)N2CCC[C@@H]12`, the melting point fell in the range of 259 to 261 °C.

In turn, `CC(C)(S)[C@H]1C[C@H](C(=O)O)CS1` (relative stereo) showed a melting point of 97 to 98.3 °C.

Take `Cn1c(-c2ccc(Cl)c(S(N)(=O)=O)c2)csc1=Nc1ccccc1`: the melting point is 168 to 171 °C.

As for `FC(F)(F)c1ccc(Nc2ccccc2C=C(Br)Br)cc1`, the melting point is 74 to 75 °C.

Turning to `CCCCCCSc1nnc(N)s1`, the melting point was in the range of 113 to 115 °C.

On to `CC(C)(C)c1ccc(/C=C/C(=O)Nc2ccc3c(c2)CCO3)cc1`, for which the melting point is 175 to 176 °C.

`COc1cn(-c2ccc(C3=CCOCC3)cc2F)nc(-c2ccnn2-c2ccccc2)c1=O` came in with a melting point of 229 to 231 °C.

On to `CCCCCCCNC(=O)Nc1ccc(N(C)C)cc1C(=O)NCC1CCCN(C(c2ccccc2)c2ccccc2)C1` (configuration not stated), for which the melting point was 142 to 144 °C.

Compound `CCOc1cc(C(CC(=O)CC)N2C(=O)c3cccc(NC(C)=O)c3C2=O)ccc1OC` (configuration not stated) had a melting point of 137 to 139 °C.

In turn, `COc1cccc(C(=O)c2cccc(C(=O)O)c2)c1` displayed a melting point of 160 °C.

Regarding `CCC(CC)(CC(=O)Nc1cccc(/C=C/c2nc(C3CC3)cs2)c1)C(=O)O`, the melting point fell in the range of 153 to 157 °C.

With `O=C1Cc2cc(C(=O)N3CCN(C(=O)c4ccccc4)CC3)ccc2N1`, the melting point was in the range of 268 to 270 °C.

In the case of `CCCC(=O)CCCCCC(=O)N[C@@H](C)C(=O)OC`, the melting point was in the range of 51 to 54 °C.

Turning to `CC(C)=C1NC(=O)c2ccccc2S1`, the melting point lay in the range of 187 to 188 °C.

On to `Cc1sc2cc(CO)ccc2c1C(=O)O`, for which the melting point was in the range of 195 to 196 °C.

On to `CC1C[C@@H]2NC[C@@H](NC(=O)OC(C)(C)C)[C@@H]2O1` (relative stereo), for which the melting point lay within 69 to 72 °C.

`CC(=O)c1ccc(C2CCC(CC(=O)NC3CCN(Cc4ccc(Cl)c(Cl)c4)CC3)CC2)cc1` (configuration not stated) displayed a melting point of 168 °C.

Take `C#CCCC(O)=C(C#N)C(=O)Nc1ccc(Cl)c(C)c1`: the melting point worked out at 147 °C.

`CC(CNC(=S)Nc1ccc(N2CCCCC2)cc1)N(Cc1ccc(Cl)c(Cl)c1)c1ccc(Br)cn1` (configuration not stated) displayed a melting point of 125 to 127 °C.

Take `CCCCCCCCCCCCCCOc1ccc(C(N)=O)cc1`: the melting point lay in the range of 128 to 130 °C.

Turning to `COC[C@@H]1CCCN1S(=O)(=O)c1ccc2c(c1)C(=O)C1=NCC(C)(C)CN12`, the melting point lay in the range of 161 to 164 °C.

Compound `Fc1cccc(F)c1-c1cnc(-c2ccc(-c3ccc(OC(F)(F)F)cc3)cc2)nn1` yielded a melting point of 199 to 202 °C.

`O=c1c(-c2ccc(O)cc2)coc2cc(O)ccc12` registered a melting point of 227 to 228 °C.

In turn, `Cc1ccc(C(=O)c2cnn3c(-c4cccnc4)ccnc23)cc1` registered a melting point of 203 to 204 °C.

In turn, `CSC(=NS(=O)(=O)c1cccnc1)SC` returned a melting point of 115 to 118 °C.

For `CC(C)(C)NCC(O)c1ccc(OCc2ccccc2)cn1` (configuration not stated), the melting point is 69 to 73 °C.

In turn, `CC(NC(=S)NCC(COC(=O)C(C)(C)C)Cc1ccccc1)c1ccc(NS(C)(=O)=O)cc1` (configuration not stated) gave a melting point of 58 to 62 °C.

`CS(=O)(=O)c1ccc(-c2cnn(-c3ccc(F)cc3)c(=O)c2-c2ccc(Cl)cc2)cc1` had a melting point of 195 to 197 °C.

In turn, `O=C(O)c1ccccc1Sc1ccccc1C(=O)O` showed a melting point of 226 to 227 °C.

`Cn1c(=Nc2ccc(Cl)cc2)sc2ncccc2c1=O` returned a melting point of 142 to 143 °C.

`Clc1ccc(-c2c(-c3ccncc3)nc(-c3c(Cl)cccc3Cl)n2C2CC2)cc1` gave a melting point of 210 to 211 °C.

In turn, `COc1cc([N+](=O)[O-])ccc1NC(=O)OCc1ccccc1` registered a melting point of 130 to 131 °C.

Compound `CCOC(=O)c1cn(-c2ncnn2C)c2cc(F)c(F)cc2c1=O` showed a melting point of 230 to 231 °C.

In turn, `O=C(O)C1=Cc2ccc(Oc3ccccc3)cc2OC1C(F)(F)F` (configuration not stated) returned a melting point of 180 to 181 °C.

`Cc1ccc2c(NCc3ccc(NC(=O)c4ccc(C)nc4)cc3)nc(Cl)nc2c1` showed a melting point of 257 to 259 °C.

`Cn1cnnc1SC1=C(c2cc(Cl)ccc2O)C2C=C(C(F)(F)F)C=CC2NC1=O` (configuration not stated) had a melting point greater than 310 °C.

As for `COC(=O)CCc1oc(-n2ccnc2S(C)(=O)=O)nc1-c1ccc(Cl)cc1`, the melting point is 112 to 113 °C.

`CCOCc1nc2c(N)nc3ccccc3c2n1CC(C)(C)CS(=O)(=O)NCc1ccc(OC)cc1`: the melting point lay in the range of 203 to 205 °C.

Regarding `CCCCc1nc(C)c(CC(=S)N2CCCC2)c(=O)n1Cc1ccc(-c2ccccc2-c2nnn[nH]2)cc1`, the melting point is 94.4 to 97.3 °C.

`Cc1ccc(CCOCC(=O)O)cc1` had a melting point of 65 to 67 °C.

As for `COc1cc2c3c([nH]c2cc1O)-c1ccccc1C3=O`, the melting point was greater than 260 °C.

The compound `NC(=O)COCCN1CCN(C(c2ccccc2)c2ccccc2)CC1` returned a melting point of 119 to 120 °C.

Take `Cc1n[nH]c2cc(-c3nn(C(C)c4oc5ccccc5c(=O)c4-c4ccccc4)c4ncnc(N)c34)ccc12` (configuration not stated): the melting point is 249 to 252 °C.

Turning to `CC(=O)OC1CC2=CCC3C4CCC(C(C)CCC=C(C)C)C4(C)CCC3C2(C)C(OC(C)=O)C1` (configuration not stated), the melting point lay within 133 to 134 °C.

`Cc1cc(C)cc(COC(=O)C(Cc2c[nH]c3ccccc23)NS(=O)(=O)c2ccccc2)c1` (configuration not stated) came in with a melting point of 114 to 116 °C.

For the compound `N=C(NS(=O)(=O)c1ccc(F)cc1)C1=NN(c2ccc(Cl)cc2)C(c2ccccc2)C1` (configuration not stated), the melting point lay within 200 to 204 °C.

`CSc1cccc(-c2ccccc2N)c1`: the melting point fell in the range of 114 to 115 °C.

The compound `Cc1nc2ccc(CNS(=O)(=O)c3ccccc3)cc2n1Cc1ccccc1Cl` returned a melting point of 164 to 167 °C.

`CCCCCCCCCC(=O)Nc1ccc(S(=O)(=O)Nc2nncs2)cc1` displayed a melting point of 151 to 152 °C.

As to `CCOC(=O)c1[nH]cc2c1NC1=C(C(=O)CNC1)C2c1ccc(Sc2nc3cc(F)c(F)cc3[nH]2)o1` (configuration not stated), the melting point fell in the range of 190 to 196 °C.

`COC(=O)CCC/C=C(\c1cc(C)c(OC)c(C(=O)OC)c1)c1cc(C)c2oc(=O)n(C)c2c1` showed a melting point of 120 °C.

For the compound `CC1(C)OC(=O)Nc2ccc(-c3ccc(N)nc3)cc21`, the melting point was in the range of 257 to 259 °C.

`CCC(=CC(CNC(=O)c1nc[nH]c1C)=NO)C(C)[N+](=O)[O-]` (configuration not stated) gave a melting point of 125 to 127 °C.

Compound `Oc1cc(-c2ccccc2)nc2nn(-c3ccccc3)cc12` returned a melting point of 280 to 281 °C.

`Cc1c(C)n(CC2CC2C)c2c(OCc3ccc(F)cc3)nncc12` (configuration not stated) had a melting point of 114 to 115 °C.

`Cc1nccc2c3ccc(OCc4ccc(F)cc4)cc3n(Cc3ccc(F)cc3)c12` returned a melting point of 175 °C.

As for `Oc1cccc2c1SCCC2`, the melting point was in the range of 86 to 88 °C.

`O=C(O)c1ccccc1Nc1cccc(Br)c1` registered a melting point of 169 to 171 °C.

`CS(=O)(=O)Nc1ccc(CCC(=O)O)cc1` registered a melting point of 152 to 154 °C.

Compound `O=C(NOC(=O)C(F)(F)F)C(F)(F)F` registered a melting point of 40 to 50 °C.

`O=C1C(c2cccc(Br)c2)n2cncc2CN1Cc1ccncc1` (configuration not stated) came in with a melting point of 50 to 54 °C.

For the compound `COc1ccc(C2=NN(c3cccc(C(=O)O)c3)C(=O)[C@H]3CC=CC[C@@H]23)cc1OC` (relative stereo), the melting point is 185 to 186 °C.

In the case of `CNc1cc(Br)cc(S(=O)(=O)c2ccccc2)c1`, the melting point lay in the range of 143 to 145 °C.

`OC(c1ccc(Cl)cc1)(c1ccc(Cl)cc1)c1nnc[nH]1` showed a melting point of 233 to 234 °C.

Take `COC(=O)Cc1ccc(CNC(=O)C2Cc3ccccc3N2S(=O)(=O)c2ccc(-c3cccc(C(F)(F)F)c3)cc2)cc1` (configuration not stated): the melting point worked out at 74 °C.

Turning to `CCOC(=O)c1cc(C#N)cc(C)n1`, the melting point is 50 °C.

`NC(=O)N1C[C@@H](O)[C@H](Oc2ccc(Cl)cc2)C1` (relative stereo) displayed a melting point of 223 to 225 °C.

In the case of `Cc1oc(-c2ccccc2)nc1CCc1ccc(CCCC2OC(=O)NC2=O)cc1` (configuration not stated), the melting point was 112 to 113 °C.
